ChEMBL document CHEMBL1201862, “PubChem BioAssay data set” (2004)
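Values below derive from 48-hour exposures of cells grown in 96-well plates, with endpoints linearly interpolated between the two concentrations bracketing the appropriate inhibition level. GI50 = concentration required for 50% inhibition of growth.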 Calls of active or inactive are those of the source. Cut-off read from the data, not from the text of the source: active = GI50 up to about 1.1 µM and inactive = higher.

Assays:
Assay in all cases: NCI anticancer screen, dose series, 48 h
ACHN = system: ACHN
CAKI-1 = system: CAKI-1
COLO 205 = system: COLO 205
HT-29 = system: HT-29
K562 = system: K562
OVCAR-4 = system: OVCAR-4
OVCAR-5 = system: OVCAR-5
RPMI-8226 = system: RPMI-8226
SF-268 = system: SF-268
SF-295 = system: SF-295
SNB-19 = system: SNB-19
SR = system: SR
CCRF-CEM = system: CCRF-CEM
MOLT-4 = system: MOLT-4
U-251 = system: U-251
UO-31 = system: UO-31

| Compound | GI50 (ACHN) | GI50 (CAKI-1) | GI50 (COLO 205) | GI50 (HT-29) | GI50 (K562) | GI50 (OVCAR-4) | GI50 (OVCAR-5) | GI50 (RPMI-8226) | GI50 (SF-268) | GI50 (SF-295) | GI50 (SNB-19) | GI50 (SR) | GI50 (CCRF-CEM) | GI50 (MOLT-4) | GI50 (U-251) | GI50 (UO-31) |
| --- | --- | --- | --- | --- | --- | --- | --- | --- | --- | --- | --- | --- | --- | --- | --- | --- |
| O=[N+]([O-])c1c(/C=N/Nc2ccccc2)oc(-c2ccc3c(c2)OCO3)c1-c1ccc2c(c1)OCO2 | 4.28 µM (inactive) | 8.22 µM (inactive) | 18.2 µM (inactive) | 23.8 µM (inactive) | 3.06 µM (inactive) | 21.5 µM (inactive) | 5.79 µM (inactive) | 5.78 µM (inactive) | 3.93 µM (inactive) | 26.9 µM (inactive) | 70.3 µM (inactive) | 1.54 µM (inactive) |  |  |  |  |
| COc1ccc(CNc2cnc3cc(N)ccc3n2)cc1 | > 100 µM (inactive) |  | > 100 µM (inactive) | > 100 µM (inactive) | > 100 µM (inactive) | > 100 µM (inactive) | > 100 µM (inactive) | 42.8 µM (inactive) | > 100 µM (inactive) | 94.4 µM (inactive) | 69 µM (inactive) | 55.3 µM (inactive) | 30 µM (inactive) | 69 µM (inactive) | > 100 µM (inactive) | 26.4 µM (inactive) |
| CCN/C(=N\Nc1ccc([N+](=O)[O-])cc1)P(=O)(OC(C)C)OC(C)C | > 100 µM (inactive) | > 100 µM (inactive) | > 100 µM (inactive) |  | > 100 µM (inactive) | 44.2 µM (inactive) | > 100 µM (inactive) | > 100 µM (inactive) | > 100 µM (inactive) |  | > 100 µM (inactive) | > 100 µM (inactive) | > 100 µM (inactive) | > 100 µM (inactive) | > 100 µM (inactive) | > 100 µM (inactive) |
| CC1(C)S[C@H](c2ccccc2C(=O)O)N[C@@H]1CC(=O)O | > 100 µM (inactive) |  | > 100 µM (inactive) | > 100 µM (inactive) | > 100 µM (inactive) | > 100 µM (inactive) |  | > 100 µM (inactive) | > 100 µM (inactive) | > 100 µM (inactive) | > 100 µM (inactive) | > 100 µM (inactive) | > 100 µM (inactive) | > 100 µM (inactive) | > 100 µM (inactive) |  |
| O=C(/C=C/c1ccccc1Cl)c1ccccc1Cl | 17.3 µM (inactive) | 17.6 µM (inactive) | 21.4 µM (inactive) | 18.8 µM (inactive) | 21 µM (inactive) | 20.7 µM (inactive) | 21.1 µM (inactive) | 16 µM (inactive) | 23.4 µM (inactive) | 22.6 µM (inactive) | 15.7 µM (inactive) |  | 20.4 µM (inactive) | 23.8 µM (inactive) | 16.3 µM (inactive) | 15.9 µM (inactive) |
| COC(=O)C1Cc2c([nH]c3ccccc23)C(c2ccccc2O)N1 (stereo not drawn) | 58.1 µM (inactive) | 98.6 µM (inactive) | 35.3 µM (inactive) | 44.9 µM (inactive) | 50 µM (inactive) | 53.5 µM (inactive) | > 100 µM (inactive) |  |  | 78.5 µM (inactive) | > 100 µM (inactive) | > 100 µM (inactive) | 45.4 µM (inactive) | 41.9 µM (inactive) | > 100 µM (inactive) | 43.1 µM (inactive) |
| c1ccc(C2=NN3CN(N2)c2ccccc2OCCCOc2ccccc23)cc1 | > 100 µM (inactive) |  | > 100 µM (inactive) | > 100 µM (inactive) | > 100 µM (inactive) | 77.6 µM (inactive) | > 100 µM (inactive) | 19.1 µM (inactive) | > 100 µM (inactive) | > 100 µM (inactive) | > 100 µM (inactive) | 92.7 µM (inactive) | > 100 µM (inactive) | 63.8 µM (inactive) | > 100 µM (inactive) | 77.4 µM (inactive) |
| O=C(c1ccccc1)C1CCCCN1C(=O)c1ccccc1 (stereo not drawn) | > 100 µM (inactive) | > 100 µM (inactive) | > 100 µM (inactive) |  | > 100 µM (inactive) | > 100 µM (inactive) |  | > 100 µM (inactive) | > 100 µM (inactive) |  | > 100 µM (inactive) | > 100 µM (inactive) | > 100 µM (inactive) | > 100 µM (inactive) | > 100 µM (inactive) | > 100 µM (inactive) |
| C=CCNC1=NC(=O)C(CC(=O)Nc2ccc([N+](=O)[O-])cc2[N+](=O)[O-])S1 (stereo not drawn) | 90.6 µM (inactive) | 83.8 µM (inactive) | > 100 µM (inactive) | > 100 µM (inactive) |  | 95.7 µM (inactive) | > 100 µM (inactive) |  | > 100 µM (inactive) | > 100 µM (inactive) | > 100 µM (inactive) |  | > 100 µM (inactive) | > 100 µM (inactive) | > 100 µM (inactive) | 84.5 µM (inactive) |
| CC[C@@]12N=C(N(C)C)C[C@]1(O)ON=C2C | > 100 µM (inactive) | > 100 µM (inactive) | > 100 µM (inactive) | > 100 µM (inactive) | > 100 µM (inactive) | > 100 µM (inactive) |  | > 100 µM (inactive) | > 100 µM (inactive) | > 100 µM (inactive) | > 100 µM (inactive) | > 100 µM (inactive) | > 100 µM (inactive) | > 100 µM (inactive) | > 100 µM (inactive) | > 100 µM (inactive) |
| N#CC1C(C#N)C2(c3ccccc3)C(c3ccccc3)=NN(c3ccccc3)CC12 (stereo not drawn) | > 100 µM (inactive) | > 100 µM (inactive) |  |  | > 100 µM (inactive) | 95.3 µM (inactive) | > 100 µM (inactive) | > 100 µM (inactive) |  | > 100 µM (inactive) | > 100 µM (inactive) | > 100 µM (inactive) | > 100 µM (inactive) | 16.8 µM (inactive) | > 100 µM (inactive) | > 100 µM (inactive) |
| O=C(O)c1ccc(C2=Cc3cc(Cl)ccc3OC2)cc1 | > 100 µM (inactive) | > 100 µM (inactive) | > 100 µM (inactive) | > 100 µM (inactive) | > 100 µM (inactive) |  | > 100 µM (inactive) | > 100 µM (inactive) | > 100 µM (inactive) | > 100 µM (inactive) | > 100 µM (inactive) | > 100 µM (inactive) | > 100 µM (inactive) | > 100 µM (inactive) | > 100 µM (inactive) | 90.4 µM (inactive) |
| CN(C)CCOc1cccc2c1C(=O)c1ccccc1C2=O | 12 µM (inactive) | 14.7 µM (inactive) | 4.38 µM (inactive) | 6.37 µM (inactive) | 11.1 µM (inactive) | 6.14 µM (inactive) | 16.5 µM (inactive) |  | 9.79 µM (inactive) | 15.1 µM (inactive) | 18.2 µM (inactive) |  | 11.4 µM (inactive) | 3.45 µM (inactive) | 17.4 µM (inactive) | 4.52 µM (inactive) |
| CC(C)(C)c1cc(C(=O)O)c2c(c1)C(=O)OC2(c1ccccc1)c1ccccc1C(=O)O (stereo not drawn) | 77.3 µM (inactive) | > 100 µM (inactive) | 41.1 µM (inactive) | > 100 µM (inactive) | > 100 µM (inactive) | 78.3 µM (inactive) | > 100 µM (inactive) |  | > 100 µM (inactive) | > 100 µM (inactive) | > 100 µM (inactive) | > 100 µM (inactive) | > 100 µM (inactive) | > 100 µM (inactive) | 0.0448 µM (active) | > 100 µM (inactive) |
| Cc1nc2ccccc2c(=O)n1/N=C(\N=N\c1ccccc1Cl)c1ccccc1 |  | 23.4 µM (inactive) | 21.5 µM (inactive) | 25.6 µM (inactive) |  |  |  | 17 µM (inactive) | 46.3 µM (inactive) |  | 74.1 µM (inactive) |  | 17.3 µM (inactive) | > 10 µM (inactive) | 26.7 µM (inactive) | 28 µM (inactive) |
| O=C(OCC1CO1)c1cccs1 (stereo not drawn) | > 100 µM (inactive) | > 100 µM (inactive) | > 100 µM (inactive) | > 100 µM (inactive) | > 100 µM (inactive) | > 100 µM (inactive) | > 100 µM (inactive) | > 100 µM (inactive) | > 100 µM (inactive) | > 100 µM (inactive) | > 100 µM (inactive) |  | > 100 µM (inactive) | > 100 µM (inactive) |  | > 100 µM (inactive) |
| CNC(=S)NNC(=O)c1c(C)nc2sccn12 | > 100 µM (inactive) | > 100 µM (inactive) | > 100 µM (inactive) | > 100 µM (inactive) | > 100 µM (inactive) |  | > 100 µM (inactive) |  | > 100 µM (inactive) | > 100 µM (inactive) | 99.5 µM (inactive) | > 100 µM (inactive) | > 100 µM (inactive) | > 100 µM (inactive) | > 100 µM (inactive) |  |
| COC(=O)[C@@]12C3=NO[C@]1(C(=O)OC)C(O[Si](C)(C)C(C)(C)C)[C@H]1OC(C)(C)O[C@H]1[C@@H]2C(OCc1ccccc1)CC3 (stereo partly drawn) | 13.2 µM (inactive) |  | 57.1 µM (inactive) | 67.3 µM (inactive) | > 100 µM (inactive) | 22.3 µM (inactive) |  | > 100 µM (inactive) |  | 37.3 µM (inactive) | 25.8 µM (inactive) |  | > 100 µM (inactive) | 9.66 µM (inactive) | 43.5 µM (inactive) | 41.3 µM (inactive) |
| COc1cc(/C=C\c2ccc(O)cc2)cc(OC)c1OC | 8.17 µM (inactive) | 4.71 µM (inactive) | 5.57 µM (inactive) | 15.3 µM (inactive) |  | 8.97 µM (inactive) | 98.9 µM (inactive) | 0.402 µM (active) | 0.555 µM (active) | 2.47 µM (inactive) | 2.56 µM (inactive) |  | 3.72 µM (inactive) | 4.24 µM (inactive) | 3.01 µM (inactive) | 10.4 µM (inactive) |
| Cn1cnc([N+](=O)[O-])c1Sc1nc2ccccc2s1 | 15 µM (inactive) | 1.57 µM (inactive) | 3.33 µM (inactive) | 13.3 µM (inactive) |  | 3.01 µM (inactive) | 14.6 µM (inactive) | 12.5 µM (inactive) | 7.19 µM (inactive) | 20.8 µM (inactive) | 14.5 µM (inactive) | 3.48 µM (inactive) |  | 1.89 µM (inactive) | 11.7 µM (inactive) | 9.57 µM (inactive) |
